pIC50: −log10 of the molar value.
Tested on: 439559-082-T-J2-PDC spheroids viability
Test: Anticancer human tumor 439559-082-T-J2-PDC patient-derived colon adenocarcinoma cell line growth inhibition [GQUAD]
Conditions: for pIC50: curve of first compound; for viability, T/C: stronger effect = lower value
Outline: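 Multi-cell-type spheroids of tumor cells with HUVEC and mesenchymal stem cells, treated with drug combinations. Concentrations descend in half-log steps from near clinical Cmax, or from 10 microM where Cmax is unknown; viability read-out.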

[1] = second compound 0.0316 µM, first compound 0.0316 µM
[2] = second compound 0.0316 µM, first compound 0.1 µM
[3] = second compound 0.0316 µM, first compound 0.316 µM
[4] = second compound 0.0316 µM, first compound 1 µM
[5] = second compound 0.0316 µM, first compound 3.16 µM
[6] = second compound 0.0316 µM, first compound 10 µM
[7] = second compound 0.1 µM, first compound 0.0316 µM
[8] = second compound 0.1 µM, first compound 0.1 µM
[9] = second compound 0.1 µM, first compound 0.316 µM
[10] = second compound 0.1 µM, first compound 1 µM
[11] = second compound 0.1 µM, first compound 3.16 µM
[12] = second compound 0.1 µM, first compound 10 µM
[13] = second compound 0.316 µM, first compound 0.0316 µM
[14] = second compound 0.316 µM, first compound 0.1 µM
[15] = second compound 0.316 µM, first compound 0.316 µM
[16] = second compound 0.316 µM, first compound 1 µM
[17] = second compound 0.316 µM, first compound 3.16 µM
[18] = second compound 0.316 µM, first compound 10 µM
[19] = second compound 1 µM, first compound 0.0316 µM
[20] = second compound 1 µM, first compound 0.1 µM
[21] = second compound 1 µM, first compound 0.316 µM
[22] = second compound 1 µM, first compound 1 µM
[23] = second compound 1 µM, first compound 3.16 µM
[24] = second compound 1 µM, first compound 10 µM
[25] = second compound 3.16 µM, first compound 0.0316 µM
[26] = second compound 3.16 µM, first compound 0.1 µM
[27] = second compound 3.16 µM, first compound 0.316 µM
[28] = second compound 3.16 µM, first compound 1 µM
[29] = second compound 3.16 µM, first compound 3.16 µM
[30] = second compound 3.16 µM, first compound 10 µM
[31] = second compound 10 µM, first compound 0.0316 µM
[32] = second compound 10 µM, first compound 0.1 µM
[33] = second compound 10 µM, first compound 0.316 µM
[34] = second compound 10 µM, first compound 1 µM
[35] = second compound 10 µM, first compound 3.16 µM
[36] = second compound 10 µM, first compound 10 µM
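Note: spheroids exposed to the agents for 7 days before readout.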
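Throughout, for viability, T/C: percent of luminescence signal in DMSO vehicle wells taken as 100% viability.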

With `CC1COCCN1c1cc(-c2ccnn2C)c2ccnc(-c3ccn[nH]3)c2n1` (stereo not drawn) + CN(C)c1ccc(Nc2c3ccc(NC(=O)CCN4CCCC4)cc3nc3cc(NC(=O)CCN4CCCC4)ccc23)cc1 the pIC50 (second compound 0.0316 µM) was 6.63, the pIC50 (second compound 0.1 µM) was 6.58 and the pIC50 (second compound 0.316 µM) was 6.65. The pIC50 (second compound 1 µM) was 6.61, the pIC50 (second compound 3.16 µM) was 6.66 and the pIC50 (second compound 10 µM) was 6.64. The viability, T/C [1] was 97.9%, the viability, T/C [2] was 72.7% and the viability, T/C [3] was 41.9%. It also gave a viability, T/C [4] of 34.6%, a viability, T/C [5] of 35.3% and a viability, T/C [6] of 28.8%. For the same molecule, the viability, T/C [7] was 104%, the viability, T/C [8] was 74.4% and the viability, T/C [9] was 43.1%. It also gave a viability, T/C [10] of 32.9%, a viability, T/C [11] of 30.9% and a viability, T/C [12] of 21.5%. The viability, T/C [13] was 97.1%, the viability, T/C [14] was 80.7% and the viability, T/C [15] was 36.7%. For the same molecule, the viability, T/C [16] was 30.3%, the viability, T/C [17] was 30.2% and the viability, T/C [18] was 24.2%. It also gave a viability, T/C [19] of 89.6%, a viability, T/C [20] of 89.1% and a viability, T/C [21] of 39.5%. It also gave a viability, T/C [22] of 34.3%, a viability, T/C [23] of 32.6% and a viability, T/C [24] of 26.4%. The viability, T/C [25] was 90%, the viability, T/C [26] was 75.1% and the viability, T/C [27] was 38.9%. The viability, T/C [28] was 28.6%, the viability, T/C [29] was 30.1% and the viability, T/C [30] was 28.8%. For the same molecule, the viability, T/C [31] was 92.9%, the viability, T/C [32] was 75.8% and the viability, T/C [33] was 40.4%. For the same molecule, the viability, T/C [34] was 27.8%, the viability, T/C [35] was 37.1% and the viability, T/C [36] was 25.1%.
`CC1COCCN1c1cc(C2(O)CC3CCC(C2)O3)c2cnn(-c3ccn[nH]3)c2n1` (stereo not drawn) + CN(C)c1ccc(Nc2c3ccc(NC(=O)CCN4CCCC4)cc3nc3cc(NC(=O)CCN4CCCC4)ccc23)cc1 gave a pIC50 (second compound 0.0316 µM) of 6.01, a pIC50 (second compound 0.1 µM) of 5.92 and a pIC50 (second compound 0.316 µM) of 6.02. It also gave a pIC50 (second compound 1 µM) of 5.94, a pIC50 (second compound 3.16 µM) of 5.97 and a pIC50 (second compound 10 µM) of 6.00. For the same molecule, the viability, T/C [1] was 96.5%, the viability, T/C [2] was 72.1% and the viability, T/C [3] was 68.3%. It also gave a viability, T/C [4] of 49.8%, a viability, T/C [5] of 35.8% and a viability, T/C [6] of 25.6%. For the same molecule, the viability, T/C [7] was 103%, the viability, T/C [8] was 78.2% and the viability, T/C [9] was 74.1%. For the same molecule, the viability, T/C [10] was 52.6%, the viability, T/C [11] was 33.9% and the viability, T/C [12] was 30.4%. It also gave a viability, T/C [13] of 94.8%, a viability, T/C [14] of 82.3% and a viability, T/C [15] of 64.4%. The viability, T/C [16] was 50.3%, the viability, T/C [17] was 37% and the viability, T/C [18] was 30.3%. The viability, T/C [19] was 80.6%, the viability, T/C [20] was 86.2% and the viability, T/C [21] was 75.7%. The viability, T/C [22] was 52%, the viability, T/C [23] was 36.6% and the viability, T/C [24] was 32.4%. For the same molecule, the viability, T/C [25] was 85.6%, the viability, T/C [26] was 87.5% and the viability, T/C [27] was 75.5%. It also gave a viability, T/C [28] of 49%, a viability, T/C [29] of 39.9% and a viability, T/C [30] of 28.9%. The viability, T/C [31] was 94.9%, the viability, T/C [32] was 76.9% and the viability, T/C [33] was 79.1%. The viability, T/C [34] was 46%, the viability, T/C [35] was 35% and the viability, T/C [36] was 25.4%.
Molecule `CC1COCCN1c1cc(C2(S(C)(=N)=O)CC2)nc(-c2ccnc3[nH]ccc23)n1` (stereo not drawn) + CN(C)c1ccc(Nc2c3ccc(NC(=O)CCN4CCCC4)cc3nc3cc(NC(=O)CCN4CCCC4)ccc23)cc1 has a pIC50 (second compound 0.0316 µM) of less than 5.00, a pIC50 (second compound 0.1 µM) of less than 5.00 and a pIC50 (second compound 0.316 µM) of less than 5.00. The pIC50 (second compound 1 µM) was less than 5.00, the pIC50 (second compound 3.16 µM) was less than 5.00 and the pIC50 (second compound 10 µM) was less than 5.00. The viability, T/C [1] was 93.8%, the viability, T/C [2] was 90% and the viability, T/C [3] was 92.4%. It also gave a viability, T/C [4] of 86.8%, a viability, T/C [5] of 89.7% and a viability, T/C [6] of 65%. The viability, T/C [7] was 97.1%, the viability, T/C [8] was 97.4% and the viability, T/C [9] was 89.9%. It also gave a viability, T/C [10] of 94.7%, a viability, T/C [11] of 79.9% and a viability, T/C [12] of 64.4%. The viability, T/C [13] was 93.3%, the viability, T/C [14] was 107% and the viability, T/C [15] was 97.8%. It also gave a viability, T/C [16] of 100%, a viability, T/C [17] of 93.4% and a viability, T/C [18] of 64.3%. For the same molecule, the viability, T/C [19] was 100%, the viability, T/C [20] was 107% and the viability, T/C [21] was 102%. The viability, T/C [22] was 86.8%, the viability, T/C [23] was 84.5% and the viability, T/C [24] was 67.6%. For the same molecule, the viability, T/C [25] was 105%, the viability, T/C [26] was 98.9% and the viability, T/C [27] was 104%. For the same molecule, the viability, T/C [28] was 93.5%, the viability, T/C [29] was 88.6% and the viability, T/C [30] was 62.4%. It also gave a viability, T/C [31] of 97.3%, a viability, T/C [32] of 98.6% and a viability, T/C [33] of 115%. The viability, T/C [34] was 106%, the viability, T/C [35] was 81.8% and the viability, T/C [36] was 63.7%.
Work on `COc1ccc([C@@H](O)c2cc(-c3ncnc4cc(N5CCOCC5)ccc34)c(F)cc2Cl)nn1` + CN(C)c1ccc(Nc2c3ccc(NC(=O)CCN4CCCC4)cc3nc3cc(NC(=O)CCN4CCCC4)ccc23)cc1 yielded a pIC50 (second compound 0.0316 µM) of less than 5.00, a pIC50 (second compound 0.1 µM) of less than 5.00 and a pIC50 (second compound 0.316 µM) of less than 5.00. It also gave a pIC50 (second compound 1 µM) of less than 5.00, a pIC50 (second compound 3.16 µM) of less than 5.00 and a pIC50 (second compound 10 µM) of less than 5.00. It also gave a viability, T/C [1] of 89.5%, a viability, T/C [2] of 98.3% and a viability, T/C [3] of 89.1%. The viability, T/C [4] was 99.7%, the viability, T/C [5] was 79.5% and the viability, T/C [6] was 83.8%. It also gave a viability, T/C [7] of 103%, a viability, T/C [8] of 101% and a viability, T/C [9] of 93.8%. For the same molecule, the viability, T/C [10] was 96.1%, the viability, T/C [11] was 88.6% and the viability, T/C [12] was 76.5%. For the same molecule, the viability, T/C [13] was 95.7%, the viability, T/C [14] was 92.8% and the viability, T/C [15] was 89.6%. It also gave a viability, T/C [16] of 79.8%, a viability, T/C [17] of 84% and a viability, T/C [18] of 86.7%. It also gave a viability, T/C [19] of 104%, a viability, T/C [20] of 89.1% and a viability, T/C [21] of 95.7%. For the same molecule, the viability, T/C [22] was 91.2%, the viability, T/C [23] was 86% and the viability, T/C [24] was 76.4%. It also gave a viability, T/C [25] of 94.9%, a viability, T/C [26] of 108% and a viability, T/C [27] of 92.6%. For the same molecule, the viability, T/C [28] was 81.1%, the viability, T/C [29] was 76% and the viability, T/C [30] was 79.1%. The viability, T/C [31] was 92.2%, the viability, T/C [32] was 77% and the viability, T/C [33] was 93.7%. It also gave a viability, T/C [34] of 71.9%, a viability, T/C [35] of 86.4% and a viability, T/C [36] of 73.4%.
